Results on 20 molecules are retold here after ChEMBL document CHEMBL3352611, “Deconstruction of 6,7-dimethoxy-1,2,3,4-tetrahydroisoquinoline moiety to separate P-glycoprotein (P-gp) activity from σ2 receptor affinity in mixed P-gp/σ2 receptor agents” (Eur J Med Chem, 2015).

pEC50, pKi: −log10 of the molar value.

The target of assay [1] is Sigma non-opioid intracellular receptor 1 (Cavia porcellus, UniProt Q60492). Nature of the assay: Displacement of (+)-[3H]-pentazocine from sigma1 recetor in guinea-pig brain membranes without cerebellum by radioligand binding assay. In kind it is cell membranes, Membrane.
Chain of Sigma non-opioid intracellular receptor 1 (Q60492 whole entry): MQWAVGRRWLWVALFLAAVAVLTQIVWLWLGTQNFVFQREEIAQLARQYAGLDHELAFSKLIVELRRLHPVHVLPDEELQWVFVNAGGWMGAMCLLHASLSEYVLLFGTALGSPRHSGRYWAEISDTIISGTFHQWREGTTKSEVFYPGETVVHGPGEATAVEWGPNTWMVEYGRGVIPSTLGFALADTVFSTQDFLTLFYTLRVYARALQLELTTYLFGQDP
A short description of assay [2]: Displacement of [3H]-DTG from sigma2 receptor in rat liver membranes in presence of […] (+)-pentazocine by radioligand binding assay. It is filed as cell membranes, Membrane.
Assay [3] is described as follows: Selectivity index, ratio of Ki for sigma1 recetor in guinea-pig brain membranes to Ki for sigma2 receptor in rat liver membranes. It is filed as cell membranes.
Assay [4] concerns the target ATP-dependent translocase ABCB1 (Homo sapiens, UniProt P08183). Description: Activity at MDR1 (unknown origin) expressed in MDCK-MDR1 cells by Calcein-AM assay. In kind it is cell-based.
The target in assay [5] is Sigma non-opioid intracellular receptor 1 (Cavia porcellus) (UniProt Q60492). To be noted: Brain, Membrane, 10 pM.
Chain of Sigma non-opioid intracellular receptor 1 (Cavia porcellus) (Q60492 whole entry): as above

Chain of ATP-dependent translocase ABCB1 (P08183 whole entry): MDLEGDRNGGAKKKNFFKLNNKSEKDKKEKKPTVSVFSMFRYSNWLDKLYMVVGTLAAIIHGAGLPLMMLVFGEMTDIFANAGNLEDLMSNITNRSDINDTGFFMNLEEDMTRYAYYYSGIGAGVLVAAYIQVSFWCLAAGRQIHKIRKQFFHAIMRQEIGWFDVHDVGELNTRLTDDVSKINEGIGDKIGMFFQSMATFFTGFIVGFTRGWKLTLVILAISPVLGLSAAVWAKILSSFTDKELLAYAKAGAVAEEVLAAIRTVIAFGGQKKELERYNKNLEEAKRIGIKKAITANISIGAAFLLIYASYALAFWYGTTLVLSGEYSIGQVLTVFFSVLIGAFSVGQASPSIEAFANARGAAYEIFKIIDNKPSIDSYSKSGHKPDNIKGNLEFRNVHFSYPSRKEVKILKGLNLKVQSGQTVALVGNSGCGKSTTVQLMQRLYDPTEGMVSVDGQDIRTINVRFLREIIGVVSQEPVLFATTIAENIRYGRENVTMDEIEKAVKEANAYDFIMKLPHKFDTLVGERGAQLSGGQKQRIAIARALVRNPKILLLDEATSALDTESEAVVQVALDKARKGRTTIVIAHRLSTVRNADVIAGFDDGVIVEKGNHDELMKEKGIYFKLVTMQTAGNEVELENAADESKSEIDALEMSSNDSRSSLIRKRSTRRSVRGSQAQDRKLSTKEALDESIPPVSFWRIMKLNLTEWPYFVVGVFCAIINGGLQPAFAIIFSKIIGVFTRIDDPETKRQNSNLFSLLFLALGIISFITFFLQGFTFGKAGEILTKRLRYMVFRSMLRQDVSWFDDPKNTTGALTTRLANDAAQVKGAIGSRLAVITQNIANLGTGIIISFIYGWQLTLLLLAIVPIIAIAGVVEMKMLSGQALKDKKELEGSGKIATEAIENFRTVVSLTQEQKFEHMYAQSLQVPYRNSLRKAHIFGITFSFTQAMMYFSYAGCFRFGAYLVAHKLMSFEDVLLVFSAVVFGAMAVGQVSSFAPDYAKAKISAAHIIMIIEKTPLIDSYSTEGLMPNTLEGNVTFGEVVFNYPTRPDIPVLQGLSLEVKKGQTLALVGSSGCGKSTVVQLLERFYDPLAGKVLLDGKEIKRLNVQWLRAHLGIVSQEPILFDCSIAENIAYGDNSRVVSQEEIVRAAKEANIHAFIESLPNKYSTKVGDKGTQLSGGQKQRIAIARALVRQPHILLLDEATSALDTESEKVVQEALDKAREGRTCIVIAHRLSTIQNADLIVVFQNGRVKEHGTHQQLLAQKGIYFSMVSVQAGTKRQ

As to `COc1ccc2c(c1OC)CC[C@@H]2NCCCCc1cn(-c2ccc(F)cc2)c2ccccc12`, the pKi in assay [1] is 6.91; in assay [2], 6.82. Moreover, in assay [3], the Ratio Ki worked out at 0.8. Moreover, the pEC50 in assay [4] is 5.87.

In the case of `CCN(CCCCc1cn(-c2ccc(F)cc2)c2ccccc12)[C@@H]1CCc2c1ccc(OC)c2OC`, the results for the pKi in assay [1] and in assay [2] were 6.90 and 7.45, respectively. The Ratio Ki in assay [3] was found to be 3.58. The negative-log EC50 (pEC50) in assay [4] was 5.76.

For the molecule `COc1cc2c(cc1OC)CN(CCCCc1cn(-c3ccc(F)cc3)c3ccccc13)CC2`, the pKi in assay [2] is 8.27. Also, in assay [3], the Ratio Ki came to 260. In addition, the negative-log EC50 (pEC50) in assay [4] is 6.68.

In the case of `COc1cccc(CCN(C)CCCCc2cn(-c3ccc(F)cc3)c3ccccc23)c1`, the negative-log Ki (pKi) in assay [1] was 7.76; in assay [2] it was 6.95. The Ratio Ki in assay [3] was determined as 0.16. Moreover, the pEC50 in assay [4] is 5.18.

On to `COc1cccc(CNCCCCc2cn(-c3ccc(F)cc3)c3ccccc23)c1`, for which the pKi in assay [1] is 6.26; in assay [2], 6.64. Also, the Ratio Ki in assay [3] stood at 2.4. Also, the negative-log EC50 (pEC50) in assay [4] was 5.53.

In the case of `COc1cccc(CCNCCCCc2cn(-c3ccc(F)cc3)c3ccccc23)c1`, the pKi in assay [1] was 6.82; in assay [2] it was 6.24. For the same molecule, the Ratio Ki in assay [3] was 0.26. For the same molecule, the pEC50 in assay [4] was 5.14.

For `COc1ccc2c(c1OC)CCC2NCCCCc1cn(-c2ccc(F)cc2)c2ccccc12` (racemic), the pKi is 6.67 in assay [1] and 6.94 in assay [2]. For the same molecule, the Ratio Ki in assay [3] was determined as 1.87. Further, in assay [4], the negative logarithm of the EC50 (pEC50) was 6.06.

`COc1ccc(CNCCCCc2cn(-c3ccc(F)cc3)c3ccccc23)cc1OC`: the figures for the negative-log Ki (pKi) in assay [1] and in assay [2] were 5.57 and 6.77, respectively. Moreover, the Ratio Ki in assay [3] is 16. Also, the pEC50 in assay [4] was 5.98.

As for `CCN(CCCCc1cn(-c2ccc(F)cc2)c2ccccc12)Cc1ccc(OC)c(OC)c1`, the negative logarithm of the Ki (pKi) in assay [1] is 7.72; in assay [2], 7.01. Further, the Ratio Ki in assay [3] came out at 0.19. For the same molecule, the negative logarithm of the EC50 (pEC50) in assay [4] was 5.75. Besides, the inhibition in assay [5] turned out to be 85%.

Take `CCN(CCCCc1cn(-c2ccc(F)cc2)c2ccccc12)Cc1ccc(OC)cc1`: the pKi in assay [2] is 7.16. Also, the pEC50 in assay [4] was 5.33.

Regarding `CCN(CCCCc1cn(-c2ccc(F)cc2)c2ccccc12)[C@H]1CCc2c1ccc(OC)c2OC`, the pKi in assay [1] is 7.29; in assay [2], 7.72. In addition, the Ratio Ki in assay [3] turned out to be 2.67. In assay [4], the pEC50 was 6.15.

Take `COc1ccc(CCNCCCCc2cn(-c3ccc(F)cc3)c3ccccc23)cc1`: the pKi in assay [1] is 6.37; in assay [2], 5.86. Besides, the Ratio Ki in assay [3] is 0.3. In assay [4], the negative-log EC50 (pEC50) was 5.55.

As to `CCN(CCCCc1cn(-c2ccc(F)cc2)c2ccccc12)Cc1cccc(OC)c1`, the pKi in assay [1] is 8.61; in assay [2], 7.04. The Ratio Ki in assay [3] was 0.03. In addition, the negative-log EC50 (pEC50) in assay [4] was 5.34.

For the molecule `COc1cc2c(cc1OC)CN(CC/C=C1\CCCc3c(OC)cccc31)CC2`, in assay [4], the negative-log EC50 (pEC50) is 6.09.

In the case of `COc1ccc(CCN(C)CCCCc2cn(-c3ccc(F)cc3)c3ccccc23)cc1`, the values for the negative logarithm of the Ki (pKi) in assay [1] and in assay [2] were 7.17 and 6.48, respectively. In assay [3], the Ratio Ki stood at 0.2. For the same molecule, the negative logarithm of the EC50 (pEC50) in assay [4] was 5.35.

With `COc1ccc(CCN(C)CCCCc2cn(-c3ccc(F)cc3)c3ccccc23)cc1OC`, the pKi in assay [1] is 6.47; in assay [2] it was 6.46. Also, in assay [3], the Ratio Ki was determined as 0.97. For the same molecule, the negative logarithm of the EC50 (pEC50) in assay [4] is 5.87.

On to `COc1ccc2c(c1OC)CC[C@H]2NCCCCc1cn(-c2ccc(F)cc2)c2ccccc12`, for which the values for the negative logarithm of the Ki (pKi) in assay [1] and in assay [2] were 6.76 and 6.60, respectively. Moreover, the Ratio Ki in assay [3] amounted to 0.69. Further, the pEC50 in assay [4] was 5.46.

As to `COc1ccc(CNCCCCc2cn(-c3ccc(F)cc3)c3ccccc23)cc1`, the pKi in assay [1] is 6.89; in assay [2], 6.64. The Ratio Ki in assay [3] was determined as 0.56. Besides, the negative-log EC50 (pEC50) in assay [4] was 5.12.

Take `CCN(CCCCc1cn(-c2ccc(F)cc2)c2ccccc12)C1CCc2c1ccc(OC)c2OC` (racemic): the pKi is 7.23 in assay [1] and 7.56 in assay [2]. Further, the Ratio Ki in assay [3] was found to be 2.14. The negative-log EC50 (pEC50) in assay [4] was 6.02.

As for `COc1ccc(CCNCCCCc2cn(-c3ccc(F)cc3)c3ccccc23)cc1OC`, the negative-log Ki (pKi) is 6.03 in assay [1] and 5.68 in assay [2]. The Ratio Ki in assay [3] stood at 0.45. Also, the pEC50 in assay [4] was 5.95.
